Assay results reported in patent US6831199B1, “Pyrimidine compounds and derivatives thereof” (G. D. Searle & Co., priority 1995, dated 2004).
Counter-ions that a name gives are not always drawn.

Columns and labels:
[1] = biological target: T1, Human fibrinogen receptor (αIIbβ3) (Homo sapiens, UniProt P05106+P08514); assay: Purified IIb/IIIa receptor assay (solid phase receptor assay, competition with biotinylated vitronectin); assay type: binding; details: read-out: IIb/IIIa IC50
T1 construct: Human fibrinogen receptor (αIIbβ3) was purified from outdated platelets; from tissue; host or cells: outdated human platelets
Outline: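 Purified platelet αIIbβ3 coated overnight at 4 °C in TBS with 1.0 mM Ca/Mg/Mn, pH 7.4, then BSA-blocked. Compounds (top 1.0×10^−4 M) competed with 1 nM biotinylated vitronectin for 2 h at room temperature. Bound label detected by HRP anti-biotin, A450; values normalized to no-competitor controls, four-parameter fit.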

[2] = biological target: T2, Human vitronectin receptor (αvβ3) (Homo sapiens, UniProt P05106+P06756); assay: Vitronectin adhesion assay (solid phase receptor assay, competition with biotinylated vitronectin); assay type: binding; details: read-out: AvB3 IC50
T2 construct: Human vitronectin receptor (αvβ3) was purified from human placenta; from tissue; host or cells: human placenta
Outline: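 Purified human αvβ3 coated overnight at 4 °C in TBS with 1.0 mM Ca++, Mg++, Mn++, pH 7.4; compounds (top final 1.0×10^−4 M) competed with 1 nM biotinylated vitronectin for 2 h at room temperature. Bound ligand detected by HRP anti-biotin/OPD at A450; values normalized to no-competitor controls, four-parameter curve fit.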

Structure (SMILES) | IC50 [1] [µM] | IC50 [2] [µM]
N=C(N)Nc1cccc(C(=O)NCC(=O)NC(CC(=O)O)c2c(F)c(F)cc(F)c2F)c1 (racemic) [Example 365, (±)β-[[2-[[[3-[(aminoiminomethyl)amino]phenyl]carbonyl]amino]acetyl]amino]-2,3,5,6-tetrafluorobenzenepropanoic acid, trifluoroacetate salt] | 8.47 | 0.0169
CCOC(=O)CC(NC(=O)CNC(=O)c1cccc(N/C(=N/C#N)NCc2ccccn2)c1)c1ccccc1 (stereo not drawn) [Example 143, ethyl β-[[2-[[[3-[[(cyanoimino)[2-pyridinylmethyl)amino]methyl]amino]phenyl]carbonyl]amino]acetyl]amino]benzenepropanoate, trifluoroacetate salt] | > 100 | 6.7
Cc1ccc(S(=O)(=O)NC(=O)Nc2cccc(C(=O)NCC(=O)NC(CC(=O)O)c3cccnc3)c2)cc1 (stereo not drawn) [Example 112, β-[[2-[[[3-[[[[(4-methylphenyl)sulfonyl]amino]carbonyl]amino]phenyl]carbonyl]amino]acetyl]amino]pyridine-3-propanoic acid, trifluoroacetate salt] | 6.34 | 0.284
CCOC(=O)NC(=N)Nc1cccc(C(=O)NCC(=O)NC(CC(=O)O)c2cc(Cl)cc(Cl)c2)c1 (stereo not drawn) [Example 241, 3,5-dichloro-β-[[2-[[[3-[[[(ethoxycarbonyl)amino]iminomethyl]amino]phenyl]carbonyl]amino]acetyl]amino]benzenepropanoic acid, trifluoroacetate salt, monohydrate] | 17.2 | 0.557
O=C(O)CC(NC(=O)CNC(=O)c1cccc(NC(=O)NCc2nc3ccccc3[nH]2)c1)c1cc(Cl)cc(Cl)c1 (stereo not drawn) [Example 272, β-[[2-[[[3-[[[[(1H-benzimidazol-2-yl)methyl)amino]carbonyl]amino]phenyl]carbonyl]amino]acetyl]amino]-3,5-dichlorobenzenepropanoic acid, trifluoroacetate salt] | 8.21 | 0.893
O=C(O)CC(NC(=O)CNC(=O)c1cccc(NC2=NCCCCC2)c1)c1cc(Cl)cc(Cl)c1 (racemic) [Example 189, (±)β-[[2-[[[3-[(3,4,5,6-tetrahydro-2H-azepin-7-yl)amino]phenyl]carbonyl]amino]acetyl]amino]-3,5-dichlorobenzenepropanoic acid, trifluoroacetate salt] | 1.98 | 0.00403
N=C(N)Nc1cccc(C(=O)NCC(=O)NC(CC(=O)O)C(=O)NCCO)c1 (racemic) [Example 89, (±)3-[[2-[[[3-[(aminoiminomethyl)amino]phenyl]carbonyl]amino]acetyl]amino]-4-[(2-hydroxyethyl)amino]-4-oxobutanoic acid, trifluoroacetate salt] | 9.83 | 1.24
C/N=C(/Nc1cccc(C(=O)NCC(=O)NC(CC(=O)O)c2cc(Cl)cc(Cl)c2)c1)NC(C)C (racemic) [Example 296, (±)3,5-dichloro-β-[[2-[[[3-[[[(1-methylethyl)amino](methylimino)methyl]amino]phenyl]carbonyl]amino]acetyl]amino]benzenepropanoic acid, trifluoroacetate salt] | 9.45 | 0.404
N#C/N=C(/N)Nc1cccc(C(=O)NCC(=O)NC(CC(=O)O)c2cc(Cl)cc(Cl)c2)c1 (stereo not drawn) [Example 160, β-[[2-[[[3-[[amino(cyanoimino)methyl]amino]phenyl]carbonyl]amino]acetyl]amino]-3,5-dichlorobenzenepropanoic acid] | 10.4 | 0.0256
O=C(O)CC(NC(=O)CNC(=O)c1cccc(NC(=O)NCc2ccccc2)c1)c1cccc(Cl)c1 (stereo not drawn) [Example 270, 3-chloro-β-[[2-[[[3-[[[(phenylmethyl)amino]carbonyl]amino]phenyl]carbonyl]amino]acetyl]amino]benzenepropanoic acid, monohydrate] | 9.16 | 0.00551

The next compounds have a lower IC50 [1] than those just listed; values first:

IC50 [1] [µM] | IC50 [2] [µM] | Structure (SMILES)
1.25 | 0.00053 | O=C(O)CC(NC(=O)CNC(=O)c1cccc(NC2=NCCCN2)c1)c1cc(Cl)cc(Br)c1O (racemic) [Example 236, (±)3-bromo-5-chloro-2-hydroxy-β-[[2-[[[3-[(1,4,5,6-tetrahydropyrimidin-2-yl)amino]phenyl]carbonyl]amino]acetyl]amino]benzenepropanoic acid, trifluoroacetate salt, monohydrate]
0.656 | 0.00041 | O=C(O)CC(NC(=O)CNC(=O)c1cccc(NC2=NCCCN2)c1)c1cc(Cl)cc(Br)c1 (racemic) [Example 215, (±)3-bromo-5-chloro-β-[[2-[[[3-[(1,4,5,6-tetrahydropyrimidin-2-yl)amino]phenyl]carbonyl]amino]acetyl]amino]-benzenepropanoic acid, trifluoroacetate salt]
0.607 | 0.00047 | O=C(O)CC(NC(=O)CNC(=O)c1cccc(NC2=NCCCN2)c1)c1cc(Br)cc(Br)c1 (racemic) [Example 211, (±)3,5-dibromo-β-[[2-[[[3-[(1,4,5,6-tetrahydropyrimidin-2-yl)amino]phenyl]carbonyl]amino]acetyl]amino]benzenepropanoic acid, trifluoroacetate salt]
0.353 | 0.334 | CC(NC(=O)c1cccc(NC(=N)N)c1)C(=O)NC(CC(=O)O)c1cccnc1 (stereo not drawn) [Example 82, β-[[2-[[[3-[(aminoiminomethyl)amino]phenyl]carbonyl]amino]-1-oxopropyl]amino]pyridine-3-propanoic acid, bis(trifluoroacetate)salt]
0.326 | 0.001 | N=C(N)Nc1cc(C(=O)NCC(=O)NC(CC(=O)O)c2cc(Cl)cc(Br)c2)cc(C(F)(F)F)c1 (racemic) [Example 216, (±)β-[[2-[[[3-[(aminoiminomethyl)amino]-5-(trifluoromethyl)phenyl]carbonyl]amino]acetyl]amino]-3-bromo-5-chlorobenzenepropanoic acid, trifluoroacetate salt]
0.134 | 0.00096 | CSc1cccc(C(CC(=O)O)NC(=O)CNC(=O)c2cccc(NC(=N)N)c2)c1 (racemic) [Example 245, (±)β-[[2-[[[3-[(aminoiminomethyl)amino]phenyl]carbonyl]amino]acetyl]amino]-3-(methylthio)benzenepropanoic acid, trifluoroacetate salt]
0.124 | 0.00076 | N=C(N)Nc1cccc(C(=O)NCC(=O)NC(CC(=O)O)c2ccc(Cl)s2)c1 (stereo not drawn) [251(C), β-[[2-[[[3-[(aminoiminomethyl)amino]phenyl]carbonyl]amino]acetyl]amino]-5-chlorothiophene-2-propanoic acid, trifluoroacetate salt]
0.0411 | 0.0497 | O=C(O)CC(NC(=O)CNC(=O)c1cccc(Nc2ncc(-c3ccccc3)[nH]2)c1)c1cccnc1 (stereo not drawn) [Example 287, β-[[2-[[[3-[[5-phenyl-1H-imidazol-2-yl)amino]phenyl]carbonylamino]acetyl]amino]pyridine-3-propanoic acid, trifluoroacetate salt]
0.00807 | 0.00665 | N=C(N)NCc1cccc(C(=O)NCC(=O)NC(CC(=O)O)c2cccnc2)c1 (racemic) [Example 85, (±)β-[[2-[[[3-[[(aminoiminomethyl)amino]methyl]phenyl]carbonyl]amino]acetyl]amino]pyridine-3-propanoic acid, bis(trifluoroacetate)salt]
